Experimental data reported in patent US20240277790A1, “RECOMBINANT BACULOVIRUSES, ALPHAVIRUS VIRUS-LIKE REPLICON PARTICLES PRODUCED THEREOF AND THEIR USES” (priority 2023, published 2024).

Tested on: mos-CHIK-VRPs
Test: VRP-based antiviral drug assay (luciferase) on Vero cells
Assay type: cell-based, CHIKV
Details: Chikungunya virus, Vero cells, 2,500 IU VRPs/well, 1 hour + 5 hours at 34° C., read-out: IC50 of inhibition of VRP infection
Description: Luciferase activity in the mos-CHIK-VRPs infected Vero cells was measured using a commercial luciferase assay kit (Promega) in accordance with the manufacturer's instructions. Signals reflecting the luciferase activity was read by a microplate reader (BioTek).
Suramin and 6-azauridine (6-AU) (both from Sigma-Aldrich) were dissolved in water to prepare the stock solutions (suramin, 50 mg/ml, 35 mM; 6-AU, 50 mg/ml, 200 mM) and then stored at −20° C. until use. Vero cells were seeded at a density of 1.5×10^4 cells/well (96 well white/clear bottom plate), and then infected with 2,500 IU VRPs/well in the presence of serially diluted suramin or 6-AU in MEM for 1 hour at 34° C. The suramin- or 6-AU-treated cells were then grown in a 5% FBS medium containing the corresponding concentrations of suramin or 6-AU for another 5 hours at 34° C., then VRP activity was measured by luciferase assay.

| SMILES | IC50 |
| --- | --- |
| O=c1cnn([C@@H]2O[C@H](CO)[C@@H](O)[C@H]2O)c(=O)[nH]1 [6-AU, 6-azauridine] | 1.29 µg/mL |
| Cc1ccc(C(=O)Nc2ccc(S(=O)(=O)O)c3cc(S(=O)(=O)O)cc(S(=O)(=O)O)c23)cc1NC(=O)c1cccc(NC(=O)Nc2cccc(C(=O)Nc3cc(C(=O)Nc4ccc(S(=O)(=O)O)c5cc(S(=O)(=O)O)cc(S(=O)(=O)O)c45)ccc3C)c2)c1 [suramin] | 81.3 µM |
